Test results from patent US20100041089A1, “IMPROVED METHOD FOR DETECTING CHEMICAL […]” (priority 2006, published 2010).

Tested on: yeast genes (expressed mRNA)
Test: DNA chip measurement of expressed mRNA of yeast genes after culture with a toxic chemical substance
Type: cell-based, Saccharomyces cerevisiae S288C
Conditions: for level of expressed mRNA in the presence of chemical substance / level in the absence of chemical substance: cultured two hours with the chemical substance; for The level of expressed mRNA in the presence of chemical substance/The level of expressed mRNA in the absence of chemical substance: cultured two hours with substance
Procedure: Yeast (Saccharomyces cerevisiae S288C (a SUC2mal mel gap2 CUP1)) were cultured at 25° C. on YPD medium (yeast extract 1%, polypeptone 2%, glucose 2%). One of toxic chemical substances was added to the cell at logarithmic growth phase, and the cell was further cultured for two hours. Cell was cultured without any chemical substance in the same condition, and was used as a control. Concentrations of the chemical substances were defined to inhibit the growth of the yeast but not lead to death.
After the completion of cultivation, the culture was centrifuged to collect the cells. To the cells, sodium acetate buffer (50 mM sodium acetate, 10 mM EDTA, 1% SDS) was added, and the mixture was shaken at 65° C. for five minutes, followed by returning to room temperature, and obtaining the supernatant, which procedure was repeated two times. To the supernatant, ½ amount of a solution of phenol/chloroform (1:1) was added, and the mixture was centrifuged to give a supernatant, an equal amount of chloroform was added, and the mixture was centrifuged to give a supernatant. To the supernatant, an equal amount of isopropanol containing 0.3 M sodium acetate was added, and the mixture was allowed to stand at room temperature for 30 minutes, after which the mixture was centrifuged to give sediment of the whole RNAs. Seventy % ethanol was added to the sediment, and the mixture was again centrifuged to give sediment, which was then dried and dissolved in water. mRNA was isolated from the whole RNAs as followings. In view of the fact that a poly A chain is attached to the 3′ terminus of mRNA, a polynucleotide having a poly T structure which was immobilized on the surface of latex beads was used to trap the mRNA, and then the mRNA was washed and eluted with spine column (Oligotex-dT30<Super>mRNA Purification Kit, Takara). Reverse transcription of the mRNA was conducted with a reverse transcriptase (Super Script II Reverse Transcriptase; catalogue No. 18064-014, GibcoBRL) using fluorescence-labeled nucleotides to give cDNAs that were introduced with Cy3-dUTP or Cy5-dUTP during the reverse transcription.
The labeled cDNAs were dissolved in TE buffer (10 mM Tris-HCl/1 mM EDTA, pH 8.0), and the solution was dropped on the DNA chip containing the whole genes of yeast (DNA Chip Research Inc. Japan) so that the cDNAs were hybridized on the DNA chip at 65° C. for over 12 hours. The fluoresces intensity of the DNA chip was read with a scanner, and the ratio relative to the fluorescence intensity resulting from the absence of chemical substance was estimated as the following, which is shown in Tables 1 to 9.
In the Tables, “Intensity” indicated in the rightmost column is a value of the level of expressed mRNA of each gene in control cells as divided by the average level of the expressions of the whole genes. A gene of which mRNA level is lower in control, and is higher in cases of addition of chemical substance, is especially useful in the detection of toxic substances.
Here, when a ratio of an amount of mRNA expressed in the presence of the chemical substance to an amount of mRNA expressed in the absence of the chemical substance is two or more, then it is considered significant.

[Cl][Pb][Cl] [(4), PbCl2]
level of expressed mRNA in the presence of chemical substance / level in the absence of chemical substance (yeast gene YDR133C): 2.0 | level of expressed mRNA in the presence of chemical substance / level in the absence of chemical substance (yeast gene YDR250C): 3.0 | level of expressed mRNA in the presence of chemical substance / level in the absence of chemical substance (yeast gene YDR278C): 1.0 | level of expressed mRNA in the presence of chemical substance / level in the absence of chemical substance (yeast gene YDR281C): 2.1 | The level of expressed mRNA in the presence of chemical substance/The level of expressed mRNA in the absence of chemical substance (yeast gene YDR330W): 0.8 | level of expressed mRNA in the presence of chemical substance / level in the absence of chemical substance (yeast gene YDR366C): 0.9 | The level of expressed mRNA in the presence of chemical substance/The level of expressed mRNA in the absence of chemical substance (yeast gene YDR411C): 1.2 | The level of expressed mRNA in the presence of chemical substance/The level of expressed mRNA in the absence of chemical substance (yeast gene YDR511W): 2.3 | The level of expressed mRNA in the presence of chemical substance/The level of expressed mRNA in the absence of chemical substance (yeast gene YDR545W): 0.7 | The level of expressed mRNA in the presence of chemical substance/The level of expressed mRNA in the absence of chemical substance (yeast gene YEL001C): 0.7 | The level of expressed mRNA in the presence of chemical substance/The level of expressed mRNA in the absence of chemical substance (yeast gene YER004W): 1.4 | The level of expressed mRNA in the presence of chemical substance/The level of expressed mRNA in the absence of chemical substance (yeast gene YER035W): 1.9 | The level of expressed mRNA in the presence of chemical substance/The level of expressed mRNA in the absence of chemical substance (yeast gene YER079W): 2.0 | The level of expressed mRNA in the presence of chemical substance/The level of expressed mRNA in the absence of chemical substance (yeast gene YER106W): 1.2 | The level of expressed mRNA in the presence of chemical substance/The level of expressed mRNA in the absence of chemical substance (yeast gene YER158C): 3.1 | The level of expressed mRNA in the presence of chemical substance/The level of expressed mRNA in the absence of chemical substance (yeast gene YER163C): 1.6 | The level of expressed mRNA in the presence of chemical substance/The level of expressed mRNA in the absence of chemical substance (yeast gene YER175C): 2.2 | The level of expressed mRNA in the presence of chemical substance/The level of expressed mRNA in the absence of chemical substance (yeast gene YFL006W): 1.0 | The level of expressed mRNA in the presence of chemical substance/The level of expressed mRNA in the absence of chemical substance (yeast gene YFL010C): 1.0 | The level of expressed mRNA in the presence of chemical substance/The level of expressed mRNA in the absence of chemical substance (yeast gene YFL024C): 0.7 | The level of expressed mRNA in the presence of chemical substance/The level of expressed mRNA in the absence of chemical substance (yeast gene YFL032W): 0.8 | level of expressed mRNA in the presence of chemical substance / level in the absence of chemical substance (yeast gene YFR026C): 0.8 | The level of expressed mRNA in the presence of chemical substance/The level of expressed mRNA in the absence of chemical substance (yeast gene YGL037C): 2.1 | The level of expressed mRNA in the presence of chemical substance/The level of expressed mRNA in the absence of chemical substance (yeast gene YGL047W): 2.3 | The level of expressed mRNA in the presence of chemical substance/The level of expressed mRNA in the absence of chemical substance (yeast gene YGL053W): 2.5 | level of expressed mRNA in the presence of chemical substance / level in the absence of chemical substance (yeast gene YGL088W): 1.1 | The level of expressed mRNA in the presence of chemical substance/The level of expressed mRNA in the absence of chemical substance (yeast gene YGL121C): 4.2 | The level of expressed mRNA in the presence of chemical substance/The level of expressed mRNA in the absence of chemical substance (yeast gene YGL199C): 1.0 | level of expressed mRNA in the presence of chemical substance / level in the absence of chemical substance (yeast gene YGR038W): 0.8 | The level of expressed mRNA in the presence of chemical substance/The level of expressed mRNA in the absence of chemical substance (yeast gene YGR101W): 1.1 | The level of expressed mRNA in the presence of chemical substance/The level of expressed mRNA in the absence of chemical substance (yeast gene YGR110W): 5.9 | The level of expressed mRNA in the presence of chemical substance/The level of expressed mRNA in the absence of chemical substance (yeast gene YGR130C): 1.6 | level of expressed mRNA in the presence of chemical substance / level in the absence of chemical substance (yeast gene YGR139W): 0.7 | The level of expressed mRNA in the presence of chemical substance/The level of expressed mRNA in the absence of chemical substance (yeast gene YGR154C): 0.5 | The level of expressed mRNA in the presence of chemical substance/The level of expressed mRNA in the absence of chemical substance (yeast gene YGR221C): 1.4 | level of expressed mRNA in the presence of chemical substance / level in the absence of chemical substance (yeast gene YGR243W): 5.0 | level of expressed mRNA in the presence of chemical substance / level in the absence of chemical substance (yeast gene YGR293C): 0.0 | level of expressed mRNA in the presence of chemical substance / level in the absence of chemical substance (yeast gene YHL006C): 0.6 | level of expressed mRNA in the presence of chemical substance / level in the absence of chemical substance (yeast gene YHR095W): 2.1 | level of expressed mRNA in the presence of chemical substance / level in the absence of chemical substance (yeast gene YHR105W): 6.3 | The level of expressed mRNA in the presence of chemical substance/The level of expressed mRNA in the absence of chemical substance (yeast gene YHR138C): 2.8 | level of expressed mRNA in the presence of chemical substance / level in the absence of chemical substance (yeast gene YHR181W): 1.4 | The level of expressed mRNA in the presence of chemical substance/The level of expressed mRNA in the absence of chemical substance (yeast gene YHR199C): 2.0 | The level of expressed mRNA in the presence of chemical substance/The level of expressed mRNA in the absence of chemical substance (yeast gene YIL023C): 1.8 | The level of expressed mRNA in the presence of chemical substance/The level of expressed mRNA in the absence of chemical substance (yeast gene YIL041W): 1.3 | The level of expressed mRNA in the presence of chemical substance/The level of expressed mRNA in the absence of chemical substance (yeast gene YIL087C): 1.6 | level of expressed mRNA in the presence of chemical substance / level in the absence of chemical substance (yeast gene YIL127C): 1.2 | level of expressed mRNA in the presence of chemical substance / level in the absence of chemical substance (yeast gene YJL017W): 1.1 | level of expressed mRNA in the presence of chemical substance / level in the absence of chemical substance (yeast gene YJL037W): 2.4 | The level of expressed mRNA in the presence of chemical substance/The level of expressed mRNA in the absence of chemical substance (yeast gene YJL057C): 1.7 | The level of expressed mRNA in the presence of chemical substance/The level of expressed mRNA in the absence of chemical substance (yeast gene YJL066C): 2.5 | The level of expressed mRNA in the presence of chemical substance/The level of expressed mRNA in the absence of chemical substance (yeast gene YJL082W): 1.1
